# Where a name gives a salt, the structure may show the parent alone.
# Target: T1, ZAP-70 (Homo sapiens, UniProt P43403)
# T1 construct: endogenous in cells; host or cells: cell lysate
# T1 sequence (P43403 1-619): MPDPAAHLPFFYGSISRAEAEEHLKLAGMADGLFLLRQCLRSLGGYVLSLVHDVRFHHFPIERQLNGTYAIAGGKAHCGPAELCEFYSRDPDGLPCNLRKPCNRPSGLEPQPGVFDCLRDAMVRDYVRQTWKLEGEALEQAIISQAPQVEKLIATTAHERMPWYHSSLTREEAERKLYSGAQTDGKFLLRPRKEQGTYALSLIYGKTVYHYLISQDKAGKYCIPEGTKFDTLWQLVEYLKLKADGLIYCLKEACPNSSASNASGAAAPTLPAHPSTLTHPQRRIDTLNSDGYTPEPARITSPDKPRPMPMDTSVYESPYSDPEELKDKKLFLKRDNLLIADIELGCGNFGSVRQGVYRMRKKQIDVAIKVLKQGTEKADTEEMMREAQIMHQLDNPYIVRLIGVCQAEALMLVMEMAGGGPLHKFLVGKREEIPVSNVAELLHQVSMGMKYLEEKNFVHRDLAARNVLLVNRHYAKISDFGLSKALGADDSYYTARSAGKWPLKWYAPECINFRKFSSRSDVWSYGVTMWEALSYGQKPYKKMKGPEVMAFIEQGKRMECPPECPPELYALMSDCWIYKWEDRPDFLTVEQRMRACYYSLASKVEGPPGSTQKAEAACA
# Experiment: ZAP-70 kinobeads assay
# Type: binding
# Conditions: competition with immobilized aminopyrido-pyrimidine ligand 24 in cell lysate; ZAP-70 detected by dot blot
# Description: The compounds of the present invention as described in the previous examples can be tested in the ZAP-70 kinobeads assay as described (EP-A 1862802 and WO-A 2007/137867). Briefly, test compounds (at various concentrations) and the affinity matrix with the immobilized aminopyrido-pyrimidine ligand 24 are added to cell lysate aliquots and allowed to bind to the proteins in the lysate sample. After the incubation time the beads with captured proteins are separated from the lysate. Bound proteins are then eluted and the presence ZAP-70 is detected and quantified using a specific antibody in a dot blot procedure and the Odyssey infrared detection system. Conventionally, ZAP-70 kinase activity can be measured using purified or recombinant enzyme in a solution-based assay with protein or peptide substrates (Isakov et al., 1996, J. Biol. Chem. 271(26), 15753-15761; Moffat et al., 1999, Bioorg. Med. Chem. Letters 9, 3351-3356).
row,IC50 [nM],Structure (SMILES)
1,< 100,"CS(=O)(=O)Nc1ccccc1Nc1nc(Nc2cccc(OCCC3CCCN3)c2)ncc1Cl (stereo not drawn) [Example 131, N-(2-(5-chloro-2-(3-(2-(pyrrolidin-2-yl)ethoxy)phenylamino)pyrimidin-4-ylamino)phenyl)methanesulfonamide]"
2,1000 to 10000,"COc1cc(Nc2ncc(F)c(Nc3ccccc3NS(C)(=O)=O)n2)ccc1Cl [Example 10, N-(2-(2-(4-chloro-3-methoxyphenylamino)-5-fluoropyrimidin-4-ylamino)phenyl)methanesulfonamide]"
3,1000 to 10000,"COc1cc(Nc2ncc(F)c(Nc3ccccc3NS(=O)(=O)c3ccccc3)n2)cc(OC)c1OC [Example 47, N-(2-(5-fluoro-2-(3,4,5-trimethoxyphenylamino)pyrimidin-4-ylamino)phenyl)benzenesulfonamide]"
4,100 to 1000,"CS(=O)(=O)Nc1ccccc1Nc1nc(Nc2ccc(-n3cccn3)cc2)ncc1Cl [Example 207, N-(2-(2-(4-(1H-pyrazol-1-yl)phenylamino)-5-chloropyrimidin-4-ylamino)phenyl)methanesulfonamide]"
5,1000 to 10000,"CS(=O)(=O)Nc1ccccc1Nc1nc(Nc2cccc(Cl)c2)ncc1F [Example 12, N-(2-(2-(3-chlorophenylamino)-5-fluoropyrimidin-4-ylamino)phenyl)methanesulfonamide]"
6,1000 to 10000,"COc1cc(Nc2ncc(F)c(Nc3ccccc3NS(=O)(=O)c3cccnc3)n2)cc(OC)c1OC [Example 52, N-(2-(5-fluoro-2-(3,4,5-trimethoxyphenylamino)pyrimidin-4-ylamino)phenyl)pyridine-3-sulfonamide]"
7,< 100,"COc1ccc(Nc2nc(Nc3ccc(OC)c(OC)c3)ncc2Br)c(NS(C)(=O)=O)c1 [Example 179, N-(2-(5-bromo-2-(3,4-dimethoxyphenylamino)pyrimidin-4-ylamino)-5-methoxyphenyl)methanesulfonamide]"
8,1000 to 10000,"COc1cc(Nc2ncc(F)c(Nc3cccc(NS(=O)(=O)CCN(C)C)c3)n2)cc(OC)c1OC [Example 65, 2-(Dimethylamino)-N-(3-(5-fluoro-2-(3,4,5-trimethoxyphenylamino)pyrimidin-4-ylamino)phenyl)ethanesulfonamide]"
9,100 to 1000,"CS(=O)(=O)Nc1ccccc1Nc1nc(Nc2cccc(C#N)c2)ncc1Cl [Example 205, N-(2-(5-chloro-2-(3-cyanophenylamino)pyrimidin-4-ylamino)phenyl)methanesulfonamide]"
10,1000 to 10000,"CS(=O)(=O)Nc1ccccc1Nc1nc(Nc2ccccc2)ncc1F [Example 34, N-(2-(5-fluoro-2-(phenylamino)pyrimidin-4-ylamino)phenyl)methanesulfonamide]"
11,100 to 1000,"COc1cc(Nc2ncc(F)c(Nc3cccc(C)c3N(C)S(C)(=O)=O)n2)cc(OC)c1OC [Example 181, N-(2-(5-fluoro-2-(3,4,5-trimethoxyphenylamino)pyrimidin-4-ylamino)-6-methylphenyl)-N-methylmethanesulfonamide]"
12,100 to 1000,"CS(=O)(=O)Nc1ccccc1Nc1nc(Nc2ccccc2)ncc1Br [Example 102, N-(2-(5-bromo-2-(phenylamino)pyrimidin-4-ylamino)phenyl)methanesulfonamide hydrochloride]"
13,100 to 1000,"CS(=O)(=O)Nc1ccccc1Nc1nc(Nc2ccc3nn[nH]c3c2)ncc1F [Example 33, N-(2-(2-(1H-benzo[d][1,2,3]-triazol-6-ylamino)-5-fluoropyrimidin-4-ylamino)phenyl)methanesulfonamide]"
14,1000 to 10000,"CS(=O)(=O)Nc1ccccc1Nc1nc(Nc2cccc(-c3nnn[nH]3)c2)ncc1F [Example 190, N-(2-(2-(3-(1H-tetrazol-5-yl)phenylamino)-5-fluoropyrimidin-4-ylamino)phenyl)methanesulfonamide]"
15,1000 to 10000,"CS(=O)(=O)Nc1ccccc1Nc1nc(Nc2ccc(OC(F)F)cc2)ncc1F [Example 27, N-(2-(2-(4-(difluoromethoxy)phenylamino)-5-fluoropyrimidin-4-ylamino)phenyl)methanesulfonamide]"
16,1000 to 10000,"CS(=O)(=O)Nc1ccccc1Nc1nc(Nc2ccc(C#N)cc2)ncc1F [Example 196, N-(2-(2-(4-cyanophenylamino)-5-fluoropyrimidin-4-ylamino)phenyl)methanesulfonamide]"
17,100 to 1000,"COc1ccc(Nc2nc(Nc3cc(OC)c(OC)c(OC)c3)ncc2Cl)c(NS(C)(=O)=O)c1F [Example 187, N-(6-(5-chloro-2-(3,4,5-trimethoxyphenylamino)pyrimidin-4-ylamino)-2-fluoro-3-methoxyphenyl)methanesulfonamide]"
18,< 100,"CS(=O)(=O)Nc1ccccc1Nc1nc(Nc2ccc(CC(=O)O)cc2)ncc1Cl [Example 148, 2-(4-(5-chloro-4-(2-(methylsulfonamido)phenylamino)pyrimidin-2-ylamino)phenyl)acetic acid]"
19,100 to 1000,"CS(=O)(=O)Nc1ccccc1Nc1nc(Nc2cccc(-n3cncn3)c2)ncc1Cl [Example 211, N-(2-(2-(3-(1H-1,2,4-triazol-1-yl)phenylamino)-5-chloropyrimidin-4-ylamino)phenyl)methanesulfonamide]"
20,100 to 1000,"CS(=O)(=O)Nc1ccccc1Nc1nc(Nc2cccc(-n3cnnn3)c2)ncc1Br [Example 216, N-(2-(2-(3-(1H-tetrazol-1-yl)phenylamino)-5-bromopyrimidin-4-ylamino)phenyl)methanesulfonamide]"
21,1000 to 10000,"CS(=O)(=O)Nc1ccccc1Nc1nc(Nc2ccc(-n3cnnn3)cc2)ncc1F [Example 195, N-(2-(2-(4-(1H-tetrazol-1-yl)phenylamino)-5-fluoropyrimidin-4-ylamino)phenyl)methanesulfonamide]"
22,100 to 1000,"Cc1nnnn1-c1ccc(Nc2ncc(F)c(Nc3ccccc3NS(C)(=O)=O)n2)cc1 [Example 199, N-(2-(5-fluoro-2-(4-(5-methyl-1H-tetrazol-1-yl)phenylamino)pyrimidin-4-ylamino)phenyl)methanesulfonamide]"
23,< 100,"COc1ccc(Nc2nc(Nc3ccc(OC)c(OC)c3)ncc2F)c(NS(C)(=O)=O)c1 [Example 180, N-(2-(2-(3,4-dimethoxyphenylamino)-5-fluoropyrimidin-4-ylamino)-5-methoxyphenyl)methanesulfonamide]"
24,1000 to 10000,"Cc1nnc(-c2cccc(Nc3ncc(F)c(Nc4ccccc4NS(C)(=O)=O)n3)c2)[nH]1 [Example 24, N-(2-(5-fluoro-2-(3-(5-methyl-4H-1,2,4-triazol-3-yl)phenylamino)pyrimidin-4-ylamino)phenyl)methanesulfonamide]"
25,1000 to 10000,"COc1cc(Nc2ncc([N+](=O)[O-])c(Nc3ccccc3NS(C)(=O)=O)n2)cc(OC)c1OC [Example 68, N-(2-(5-nitro-2-(3,4,5-trimethoxyphenylamino)pyrimidin-4-ylamino)phenyl)methanesulfonamide]"
26,1000 to 10000,"COc1cc(Nc2ncc(F)c(Nc3cccc(NS(=O)(=O)CC(F)(F)F)c3)n2)cc(OC)c1OC [Example 60, 2,2,2-trifluoro-N-(3-(5-fluoro-2-(3,4,5-trimethoxyphenylamino)pyrimidin-4-ylamino)phenyl)ethanesulfonamide]"

row,Structure (SMILES),IC50 [nM]
1,"COc1cc(Nc2ncc(F)c(Nc3cccc(C)c3NS(C)(=O)=O)n2)cc(OCC(C)C)c1OC [Example 119, N-(2-(5-fluoro-2-(3-isobutoxy-4,5-dimethoxyphenylamino)pyrimidin-4-ylamino)-6-methylphenyl)methanesulfonamide]",100 to 1000

# — patent publication US20110098288A1, “SULFONAMIDES AS ZAP-70 INHIBITORS” (priority 2008, published 2011)
